From US20160355530A1, “HEPATITIS C INHIBITORS AND USES THEREOF” (AbbVie Inc., priority 2010, published 2016)
Like-named read-outs stand apart in the source and are kept apart here.

Tests used:
[1] = target: T1, HCV NS5B polymerase 1a-H77 (Hepatitis C virus genotype 1a, UniProt P27958); assay: biochemical; parameters: species or system HCV genotype 1a; conditions: enzyme, strain 1a H77; read-out: HCV Polymerase Strain 1a H77 IC50
T1 construct: six-histidine tag; made in house; host or cells: E. coli
T1 sequence (P27958 2421-2990): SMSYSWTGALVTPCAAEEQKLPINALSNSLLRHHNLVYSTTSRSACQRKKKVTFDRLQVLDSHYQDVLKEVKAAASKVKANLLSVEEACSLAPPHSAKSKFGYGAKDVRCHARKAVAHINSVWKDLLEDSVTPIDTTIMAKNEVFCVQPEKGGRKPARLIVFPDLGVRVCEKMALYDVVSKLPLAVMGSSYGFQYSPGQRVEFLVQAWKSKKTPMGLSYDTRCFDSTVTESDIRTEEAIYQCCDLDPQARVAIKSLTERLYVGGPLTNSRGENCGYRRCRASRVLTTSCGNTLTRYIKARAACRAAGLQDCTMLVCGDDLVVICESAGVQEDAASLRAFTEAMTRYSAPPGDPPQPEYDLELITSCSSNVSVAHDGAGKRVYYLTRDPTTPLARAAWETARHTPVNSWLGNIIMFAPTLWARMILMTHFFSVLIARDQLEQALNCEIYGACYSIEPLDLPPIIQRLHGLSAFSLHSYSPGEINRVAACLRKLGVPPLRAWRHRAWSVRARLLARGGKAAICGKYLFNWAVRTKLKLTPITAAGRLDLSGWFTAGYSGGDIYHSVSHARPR
In short: (§1)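 Incorporation of [3H]UTP (0.284 μM), alongside 20 μM each CTP and ATP, into RNA copied from a 5 nM 2.1 kb genotype 1b negative-strand template was measured after 3 h at 30° C using purified His-tagged NS5B truncated at residue 570. Product was spermine-precipitated, filtered and scintillation-counted; nonlinear regression gave IC50.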

[2] = target: T2, HCV NS5B polymerase 1a-H77-C316Y (Hepatitis C virus genotype 1a, UniProt P27958, C2736Y); assay: biochemical; parameters: species or system HCV genotype 1a
T2 construct: six-histidine tag; made in house; host or cells: E. coli
T2 sequence (P27958 2421-2990 C2736Y): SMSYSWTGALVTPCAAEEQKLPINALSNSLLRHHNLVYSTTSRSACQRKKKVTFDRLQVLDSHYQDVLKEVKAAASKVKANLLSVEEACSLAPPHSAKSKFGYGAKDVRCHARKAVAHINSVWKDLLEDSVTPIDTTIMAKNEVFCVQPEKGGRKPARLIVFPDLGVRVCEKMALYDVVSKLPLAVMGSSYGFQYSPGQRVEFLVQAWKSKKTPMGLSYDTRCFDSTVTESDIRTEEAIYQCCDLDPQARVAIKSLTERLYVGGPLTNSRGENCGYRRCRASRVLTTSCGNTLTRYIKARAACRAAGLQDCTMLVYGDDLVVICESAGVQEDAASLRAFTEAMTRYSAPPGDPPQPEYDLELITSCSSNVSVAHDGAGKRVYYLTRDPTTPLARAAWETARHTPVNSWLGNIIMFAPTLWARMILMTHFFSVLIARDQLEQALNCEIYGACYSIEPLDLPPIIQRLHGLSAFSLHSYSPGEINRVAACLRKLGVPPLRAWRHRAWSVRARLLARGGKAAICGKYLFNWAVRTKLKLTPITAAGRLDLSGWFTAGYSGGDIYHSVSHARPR
In short: as §1

[3] = system: HCV NS5B polymerase 1a-H77-C316Y; assay: biochemical; parameters: species or system HCV genotype 1a; conditions: ratio of enzyme IC50s, 1a H77-C316Y / 1a H77
In short: as §1

[4] = target: T3, HCV NS5B polymerase 1b BK strain (Hepatitis C virus genotype 1b, UniProt P26663); assay: HCV NS5B polymerase enzymatic inhibition assay, strain 1b BK; format: biochemical; conditions: enzyme, strain 1b BK; read-out: HCV Polymerase Strain 1b BK IC50
T3 construct: six-histidine tag; made in house; host or cells: E. coli
T3 sequence (P26663 2420-2989): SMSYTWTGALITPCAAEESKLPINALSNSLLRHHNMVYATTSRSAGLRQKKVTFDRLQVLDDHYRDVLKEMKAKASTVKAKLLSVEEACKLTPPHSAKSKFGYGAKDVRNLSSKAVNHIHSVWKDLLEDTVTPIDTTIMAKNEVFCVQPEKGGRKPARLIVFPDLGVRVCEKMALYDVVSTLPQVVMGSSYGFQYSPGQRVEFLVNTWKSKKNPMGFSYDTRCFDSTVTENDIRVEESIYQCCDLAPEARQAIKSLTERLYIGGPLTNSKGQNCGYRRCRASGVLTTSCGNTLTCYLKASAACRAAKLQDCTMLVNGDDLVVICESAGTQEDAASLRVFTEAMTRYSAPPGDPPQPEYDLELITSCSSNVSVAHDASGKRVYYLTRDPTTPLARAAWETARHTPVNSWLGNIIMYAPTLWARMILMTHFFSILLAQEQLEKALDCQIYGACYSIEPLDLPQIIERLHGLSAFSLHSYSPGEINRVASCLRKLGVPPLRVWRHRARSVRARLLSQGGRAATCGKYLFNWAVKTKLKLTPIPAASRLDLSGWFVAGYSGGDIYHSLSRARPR
In short: as §1

[5] = system: HCV 1a-H77 subgenomic replicon; assay: microbe, parasite or virus in culture; format: cell-based, HCV genotype 1a; conditions: Hepatitis C virus, stable replicon
[6] = system: HCV 1b-BB7 subgenomic replicon; assay: microbe, parasite or virus in culture; format: cell-based, HCV genotype 1b; conditions: Hepatitis C virus, stable replicon
[7] = system: chimeric replicon with 2a-J6CF-derived NS5B; assay: microbe, parasite or virus in culture; format: cell-based, HCV genotype 2a; conditions: Hepatitis C virus, read-out: 2a chimera 5% FBS EC50
[8] = system: chimeric replicon with genotype 2b NS5B; assay: microbe, parasite or virus in culture; format: cell-based, HCV genotype 2b; conditions: Hepatitis C virus, read-out: 2b chimera 5% FBS EC50
[9] = system: chimeric replicon with genotype 3a NS5B; assay: microbe, parasite or virus in culture; format: cell-based, HCV genotype 3a; conditions: Hepatitis C virus, read-out: 3a chimera 5% FBS EC50
[10] = system: chimeric replicon with genotype 4a NS5B; assay: microbe, parasite or virus in culture; format: cell-based, HCV genotype 4a; conditions: Hepatitis C virus, read-out: 4a chimera 5% FBS EC50
[11] = 5% FBS, absence of human plasma, read-out: Stable Replicon 1a H77 5% FBS EC50
[12] = strain 1a H77, 5% FBS + 40% human plasma, read-out: 1a H77 5% FBS + 40% Human Plasma EC50
[13] = strain 1a H77, 5% FBS, no human plasma, read-out: 1a H77 5% FBS EC50
[14] = strain 1a H77, 5% FBS, read-out: 1a H77 5% FBS EC50
[15] = strain 1b BB7, 5% FBS + 40% human plasma, read-out: 1b BB7 5% FBS + 40% Human Plasma EC50
[16] = strain 1b BB7, 5% FBS, no human plasma, read-out: 1b BB7 5% FBS EC50
[17] = strain 1b BB7, 5% FBS, read-out: 1b BB7 5% FBS EC50

Compound	IC50 [1] [nM]	IC50 [2] [nM]	C316Y/1a Fold Resistance [3] [fold]	IC50 [4] [nM]	EC50 [5, 11] [nM]	EC50 [5, 12] [nM]	EC50 [5, 13] [nM]	EC50 [5, 14] [nM]	EC50 [6, 15] [nM]	EC50 [6, 16] [nM]	EC50 [6, 17] [nM]	EC50 [7] [nM]	EC50 [8] [nM]	EC50 [9] [nM]	EC50 [10] [nM]
CS(=O)(=O)N(CCCF)c1cc2oc(-c3ccc(F)cc3)c(-c3ncc[nH]3)c2cc1C1CC1 [Example 85, N-[5-cyclopropyl-2-(4-fluorophenyl)-3-(1H-imidazol-2-yl)-1-benzofuran-6-yl]-N-(3-fluoropropyl)methanesulfonamide]	4.5	88	20	18	21.8	162	21.8	21.8	95	9.8	9.8	66.2	131	6.4	73.8
CS(=O)(=O)NCCCN(c1cc2oc(-c3ccc(F)cc3)c(-c3ncc[nH]3)c2cc1C1CC1)S(C)(=O)=O [Example 95, N-[5-cyclopropyl-2-(4-fluorophenyl)-3-(1H-imidazol-2-yl)-1-benzofuran-6-yl]-N-{3-[(methylsulfonyl)amino]propyl}methanesulfonamide]	4.5	85	19	13	11.2	121	11.2	11.2	76.1	4.8	4.8	33.1	80.8	5.7	46.1
CN(C)C(=O)CCCN(c1cc2oc(-c3ccc(F)cc3)c(-c3ncc[nH]3)c2cc1C1CC1)S(C)(=O)=O [Example 102, 4-{[5-cyclopropyl-2-(4-fluorophenyl)-3-(1H-imidazol-2-yl)-1-benzofuran-6-yl](methylsulfonyl)amino}-N,N-dimethylbutanamide]	7.7	168	22	47	24.1	242	24.1	24.1	66	10	10	108	134	9.7	145
CNC(=O)CCCN(c1cc2oc(-c3ccc(F)cc3)c(-c3ncc[nH]3)c2cc1C1CC1)S(C)(=O)=O [Example 107, 4-{[5-cyclopropyl-2-(4-fluorophenyl)-3-(1H-imidazol-2-yl)-1-benzofuran-6-yl](methylsulfonyl)amino}-N-methylbutanamide]	5.5	122	22	28	17.5	82	17.5	17.5	66	11	11	135	141	9.3	129
[2H]C([2H])(CCCCC)N(c1cc2oc(-c3ccc(F)cc3)c(-c3ncc[nH]3)c2cc1C1CC1)S(C)(=O)=O [Example 113, N-[5-cyclopropyl-2-(4-fluorophenyl)-3-(1H-imidazol-2-yl)-1-benzofuran-6-yl]-N-[(1,1-^2H2)hexyl]methanesulfonamide]	6.5	140	22	16	59.9	646	59.9	59.9	549	28	28	209	279	41	144
CCOP(=O)(CCCN(c1cc2oc(-c3ccc(F)cc3)c(C3=NOCCN3)c2cc1C1CC1)S(C)(=O)=O)OCC [Example 116, diethyl (3-{[5-cyclopropyl-3-(5,6-dihydro-4H-1,2,4-oxadiazin-3-yl)-2-(4-fluorophenyl)-1-benzofuran-6-yl](methylsulfonyl)amino}propyl)phosphonate]	7.5	63	8	35	35.9	157	35.9	35.9	213	32	32	535	396	84	247
CS(=O)(=O)N(CCCC(F)(F)F)c1cc2oc(-c3ccc(F)cc3)c(C3=NOCCN3)c2cc1C1CC1 [Example 117, N-[5-cyclopropyl-3-(5,6-dihydro-4H-1,2,4-oxadiazin-3-yl)-2-(4-fluorophenyl)-1-benzofuran-6-yl]-N-(4,4,4-trifluorobutyl)methanesulfonamide]	4.5	36	8	31	22	159	22	22	245	30	30	214	240	31	233
CS(=O)(=O)N(CCC(F)(F)F)c1cc2oc(-c3ccc(F)cc3)c(C3=NOCCN3)c2cc1C1CC1 [Example 118, N-[5-cyclopropyl-3-(5,6-dihydro-4H-1,2,4-oxadiazin-3-yl)-2-(4-fluorophenyl)-1-benzofuran-6-yl]-N-(3,3,3-trifluoropropyl)methanesulfonamide]	5.9	114	19	49	19.8	165	19.8	19.8	253	26	26	230	477	47	449
CS(=O)(=O)N(CCCn1cccc1)c1cc2oc(-c3ccc(F)cc3)c(C3=NOCCN3)c2cc1C1CC1 [Example 119, N-[5-cyclopropyl-3-(5,6-dihydro-4H-1,2,4-oxadiazin-3-yl)-2-(4-fluorophenyl)-1-benzofuran-6-yl]-N-[3-(1H-pyrrol-1-yl)propyl]methanesulfonamide]	7	41	6	38	19.4	247	19.4	19.4	129	17	17	79	189	30	142
CS(=O)(=O)N(CCCCC(F)=C(F)F)c1cc2oc(-c3ccc(F)cc3)c(C3=NOCCN3)c2cc1C1CC1 [Example 120, N-[5-cyclopropyl-3-(5,6-dihydro-4H-1,2,4-oxadiazin-3-yl)-2-(4-fluorophenyl)-1-benzofuran-6-yl]-N-(5,6,6-trifluorohex-5-en-1-yl)methanesulfonamide]	5	28	6	47	17.5	190	17.5	17.5	189	18	18	125	157	36	82
CC(C)(O)CCN(c1cc2oc(-c3ccc(F)cc3)c(C3=NOCCN3)c2cc1C1CC1)S(C)(=O)=O [Example 125, N-[5-cyclopropyl-3-(5,6-dihydro-4H-1,2,4-oxadiazin-3-yl)-2-(4-fluorophenyl)-1-benzofuran-6-yl]-N-(3-hydroxy-3-methylbutyl)methanesulfonamide]	11	112	10	60	12.6	156	12.6	12.6	347	20	20	222	182	50	85
